In patent US10738062B2, “Chromane-substituted tetracyclic compounds and uses thereof for the treatment of viral diseases” (Merck Sharp & Dohme Corp., priority 2016, dated 2020):
Read-outs that look alike come from different tables or passages of the source.

How the values were obtained:
Design in all cases: species or system Hepatitis C virus
HCV replicon 1A = test: Cell-based HCV replicon assay (Replicon Assay A), replicon 1A; details: replicon RNA by real time PCR, day 3
Description: (§1) To measure cell-based anti-HCV activity of compounds of the present invention, two complimentary assays were employed using various replicons. In the first assay (“Replicon Assay A”), replicon cells were seeded at 2000 cells/well in 384-well 384-well flat bottom tissue culture treated clear bottom plate (Corning 3707) in the presence of the test compound. Various concentrations of test compound, typically in 10 serial dilutions, were added to the assay mixture, with the starting concentration ranging from 333.3 nM to 1.667 nM. The final concentration of DMSO was 0.5%. Fetal bovine serum was 5%, in the assay media. Cells were harvested on day 3 by removing media and washing the cells with a suitable wash buffer. The cells were lysed with the addition of 1× Qiagen lysis buffer (Cat #1062731). The replicon RNA level was measured using real time PCR (TaqMan® EZ RT-PCR, Applied Biosystems 403028) with the following primers and probes: […]
(§2) Cyclophilin RNA was used as endogenous control and was amplified in the same reaction as NS5B (multiplex PCR). The real-time RT-PCR reactions were run on ABI PRISM 7900HT Sequence Detection System using the following program: 50° C. for 2 minutes, 60° C. for 30 minutes, 95° C. for 5 minutes, 40 cycles of 94° C. for 20 sec, 55° C. for 1 minutes.
(§3) The amount of HCV replicon RNA per cell was quantified using a linear regression curve for a known nanogram (ng) amount of HCV replicon total RNA. This was established by plotting the Cycle Threshold values (Ct) from the Neo probe and primer set versus the log (ng) for each HCV replicon total RNA standard. The amount of HCV RNA for each replicon sample was calculated by taking the sample's Ct value, minus the line intercept, divided by the slope of the line. Similarly, the amount of Cyclophilin mRNA per cell was also quantified using a linear regression curve for a known nanogram (ng) amount of HCV replicon total RNA. Again, this was established by plotting the Cycle Threshold values (Ct) from the Cyclophilin probe and primer set versus the log (ng) for each HCV replicon total RNA standard.
(§4) The real-time RT-PCR reactions were run on ABI PRISM 7900HT or Viia7 Sequence Detection System using the following program: 48° C. for 30 minutes, 95° C. for 10 minutes, 40 cycles of 95° C. for 15 sec, 60° C. for 1 minutes. The 50% effective concentration (EC50) was the drug concentration necessary to achieve an increase in the cycle threshold (CT) of 1 over the projected baseline CT.
(§5) Data was obtained for various compounds of the present invention using the methods described in the Example above, and is presented in the table immediately below. EC50 data for replicons 1A, 1AY93H and 2B were obtained using Replicon Assay A and EC50 data for replicon 1B was obtained using Replicon Assay B.

HCV replicon 2B = test: Cell-based HCV replicon assay (Replicon Assay A), replicon 2B; details: replicon RNA by real time PCR, day 3
Description: as §1, §2, §3, §4, §5

HCV replicon 1A Y93H = test: Cell-based HCV replicon assay (Replicon Assay A), replicon 1AY93H; details: read-out: EC50 replicon 1A Y93H; Replicon Assay A; replicon RNA by real time PCR, day 3
Description: as §1, §2, §3, §4, §5

[1] = read-out: EC50 replicon 2B, Replicon Assay A

SMILES | EC50 (HCV replicon 1A; Hepatitis C virus, 72 h) | EC50 (HCV replicon 2B; [1]) | EC50 (HCV replicon 1A Y93H) | EC50 (HCV replicon 1A) | EC50 (HCV replicon 2B; Hepatitis C virus, 72 h, read-out: EC50 replicon 2B, Replicon Assay A)
COC(=O)N[C@H](C(=O)N1CCC[C@H]1c1ncc(-c2cc(F)c3c(c2)OC(c2ccc4c(c2)OCCC4C)n2c-3cc3cc(-c4cnc([C@@H]5CCCN5C(=O)[C@@H](NC(=O)OC)C(C)C)[nH]4)ccc32)[nH]1)C(C)C (single isomer, unassigned) [Compound 7] | 0.0017 nM | 1.59 nM | 2.18 nM | – | –
COC(=O)N[C@H](C(=O)N1CCC[C@H]1c1ncc(-c2cc(F)c3c(c2)OC(c2ccc4c(c2)OCCC4C)n2c-3cc3cc(-c4cnc([C@@H]5CCCN5C(=O)[C@@H](NC(=O)OC)C(C)C)[nH]4)ccc32)[nH]1)C(C)C (single isomer, unassigned) [Compound 9] | – | 0.772 nM | 0.949 nM | 0.0026 nM | –
COC(=O)N[C@H](C(=O)N1CCC[C@H]1c1ncc(-c2cc(F)c3c(c2)OC(c2ccc4c(c2)OC(C)CC4)n2c-3cc3cc(-c4cnc([C@@H]5CCCN5C(=O)[C@@H](NC(=O)OC)C(C)C)[nH]4)ccc32)[nH]1)C(C)C (single isomer, unassigned) [Compound 11] | 0.0025 nM | 1.39 nM | 5.7 nM | – | –
COC(=O)N[C@H](C(=O)N1CCC[C@H]1c1ncc(-c2cc(F)c3c(c2)OC(c2ccc4c(c2)OC(C)CC4)n2c-3cc3cc(-c4cnc([C@@H]5CCCN5C(=O)[C@@H](NC(=O)OC)C(C)C)[nH]4)ccc32)[nH]1)C(C)C (single isomer, unassigned) [Compound 12] | – | 1.9 nM | 6.73 nM | 0.0016 nM | –
COC(=O)N[C@H](C(=O)N1CCC[C@H]1c1ncc(-c2cc(F)c3c(c2)OC(c2ccc4c(c2)OCCC42CC2)n2c-3cc3cc(-c4cnc([C@@H]5CCCN5C(=O)[C@@H](NC(=O)OC)C(C)C)[nH]4)ccc32)[nH]1)C(C)C (single isomer, unassigned) [Compound 15] | 0.0012 nM | 1.31 nM | 2.15 nM | – | –
COC(=O)N[C@H](C(=O)N1CCC[C@H]1c1ncc(-c2cc(F)c3c(c2)OC(c2ccc4c(c2)OCCC42CC2)n2c-3cc3cc(-c4cnc([C@@H]5CCCN5C(=O)[C@@H](NC(=O)OC)C(C)C)[nH]4)ccc32)[nH]1)C(C)C (single isomer, unassigned) [Compound 16] | – | 0.038 nM | 0.031 nM | 0.002 nM | –
COC(=O)N[C@H](C(=O)N1CCC[C@H]1c1ncc(-c2cc(F)c3c(c2)OC(c2ccc4c(c2)OC(C)(C)CC4)n2c-3cc3cc(-c4cnc([C@@H]5CCCN5C(=O)[C@@H](NC(=O)OC)C(C)C)[nH]4)ccc32)[nH]1)C(C)C (single isomer, unassigned) [Compound 17] | – | 5.21 nM | 11.8 nM | – | –
COC(=O)N[C@H](C(=O)N1CCC[C@H]1c1ncc(-c2cc(F)c3c(c2)OC(c2ccc4c(c2)OC(C)(C)CC4)n2c-3cc3cc(-c4cnc([C@@H]5CCCN5C(=O)[C@@H](NC(=O)OC)C(C)C)[nH]4)ccc32)[nH]1)C(C)C (single isomer, unassigned) [Compound 18] | 0.0022 nM | 0.252 nM | 0.052 nM | – | –
COC(=O)N[C@H](C(=O)N1CCC[C@H]1c1ncc(-c2cc(F)c3c(c2)OC(c2ccc4c(c2)OCCC4(F)F)n2c-3cc3cc(-c4cnc([C@@H]5CCCN5C(=O)[C@@H](NC(=O)OC)C(C)C)[nH]4)ccc32)[nH]1)C(C)C (single isomer, unassigned) [Compound 19] | 0.0014 nM | 0.767 nM | 4.2 nM | – | –
COC(=O)N[C@H](C(=O)N1CCC[C@H]1c1ncc(-c2cc(F)c3c(c2)OC(c2ccc4c(c2)CCC(C)(C)O4)n2c-3cc3cc(-c4cnc([C@@H]5CCCN5C(=O)[C@@H](NC(=O)OC)C(C)C)[nH]4)ccc32)[nH]1)C(C)C (single isomer, unassigned) [Compound 21] | 0.0015 nM | 3.56 nM | 7.11 nM | – | –
COC(=O)N[C@H](C(=O)N1CCC[C@H]1c1ncc(-c2cc(F)c3c(c2)OC(c2ccc4c(c2)CCC(C)(C)O4)n2c-3cc3cc(-c4cnc([C@@H]5CCCN5C(=O)[C@@H](NC(=O)OC)C(C)C)[nH]4)ccc32)[nH]1)C(C)C (single isomer, unassigned) [Compound 22] | – | 0.93 nM | 0.162 nM | 0.0027 nM | –
COC(=O)N[C@H](C(=O)N1CCC[C@H]1c1ncc(-c2cc(F)c3c(c2)OC(c2ccc4c(c2)CCCO4)n2c-3cc3cc(-c4cnc([C@@H]5CCCN5C(=O)[C@@H](NC(=O)OC)C(C)C)[nH]4)ccc32)[nH]1)C(C)C (single isomer, unassigned) [Compound 23] | 0.002 nM | 5.17 nM | 2.62 nM | – | –
COC(=O)N[C@H](C(=O)N1CCC[C@H]1c1ncc(-c2cc(F)c3c(c2)OC(c2ccc4c(c2)CCCO4)n2c-3cc3cc(-c4cnc([C@@H]5CCCN5C(=O)[C@@H](NC(=O)OC)C(C)C)[nH]4)ccc32)[nH]1)C(C)C (single isomer, unassigned) [Compound 24] | – | 1.77 nM | 0.282 nM | 0.0016 nM | –
COC(=O)N[C@H](C(=O)N1CCC[C@H]1c1ncc(-c2cc(F)c3c(c2)OC(c2ccc4c(c2)CC2CC2(C)O4)n2c-3cc3cc(-c4cnc([C@@H]5CCCN5C(=O)[C@@H](NC(=O)OC)C(C)C)[nH]4)ccc32)[nH]1)C(C)C (single isomer, unassigned) [Compound 25] | 0.0037 nM | 3.83 nM | 4.67 nM | – | –
COC(=O)N[C@H](C(=O)N1CCC[C@H]1c1ncc(-c2cc(F)c3c(c2)OC(c2ccc4c(c2)OCCC4)n2c-3cc3cc(-c4cnc([C@@H]5C[C@@H](F)CN5C(=O)[C@@H](c5ccccc5)N5CCC5)[nH]4)ccc32)[nH]1)C(C)C (single isomer, unassigned) [Compound 37] | – | – | 15.2 nM | 0.187 nM | –
COC(=O)N[C@H](C(=O)N1CCC[C@H]1c1ncc(-c2cc(F)c3c(c2)OC(c2ccc4c(c2)OCCC4)n2c-3cc3cc(-c4cnc([C@@H]5C[C@@H](F)CN5C(=O)[C@@H](c5ccccc5)N5CCC5)[nH]4)ccc32)[nH]1)C(C)C (single isomer, unassigned) [Compound 38] | – | – | 6.65 nM | 0.0052 nM | –
COC(=O)NC(C(=O)N1CCC[C@H]1c1ncc(-c2ccc3c(c2)cc2n3C(c3ccc4c(c3)OCCC4)Oc3cc(-c4cnc([C@@H]5CCCN5C(=O)[C@@H](NC(=O)OC)C(C)C)[nH]4)cc(F)c3-2)[nH]1)C(C)(C)F (single isomer, unassigned) [Compound 41] | – | 4.13 nM | – | – | –
COC(=O)NC(C(=O)N1CCC[C@H]1c1ncc(-c2ccc3c(c2)cc2n3C(c3ccc4c(c3)OCCC4)Oc3cc(-c4cnc([C@@H]5CCCN5C(=O)[C@@H](NC(=O)OC)C(C)C)[nH]4)cc(F)c3-2)[nH]1)C(C)(C)F (single isomer, unassigned) [Compound 44] | – | 4.91 nM | – | – | –
COC(=O)N[C@H](C(=O)N1CCC[C@H]1c1ncc(-c2cc(F)c3c(c2)OC(c2ccc4c(c2)OCC4)n2c-3cc3cc(-c4cnc([C@@H]5C[C@H]6C[C@H]6N5C(=O)[C@@H](NC(=O)OC)C(C)C)[nH]4)ccc32)[nH]1)C(C)C (single isomer, unassigned) [Compound 47] | – | 4.32 nM | 4.52 nM | – | –
CCN(CC)[C@@H](C(=O)N1[C@@H]2C[C@@H]2C[C@H]1c1ncc(-c2ccc3c(c2)cc2n3C(c3ccc4c(c3)OCCC4)Oc3cc(-c4cnc([C@@H]5CCCN5C(=O)[C@@H](NC(=O)OC)C5CCOCC5)[nH]4)cc(F)c3-2)[nH]1)c1ccccc1 (single isomer, unassigned) [Compound 53] | – | 0.379 nM | – | – | –
COC(=O)N[C@H](C(=O)N1CCC[C@H]1c1ncc(-c2cc(F)c3c(c2)OC(c2ccc4c(c2)OCCC4)n2c-3cc3cc(-c4cnc([C@@H]5C[C@H]6C[C@H]6N5C(=O)[C@@H](c5ccccc5)N5CCC5)[nH]4)ccc32)[nH]1)C1CCOCC1 (single isomer, unassigned) [Compound 71] | – | – | – | – | 5.13 nM
COC(=O)N[C@H](C(=O)N1CCC[C@H]1c1ncc(-c2cc(F)c3c(c2)OC(c2ccc4c(c2)OCCC4)n2c-3cc3cc(-c4cnc([C@@H]5C[C@H]6C[C@H]6N5C(=O)[C@@H](c5ccccc5)N5CCC5)[nH]4)ccc32)[nH]1)C1CCOCC1 (single isomer, unassigned) [Compound 72] | – | 3.3 nM | – | – | –
